Reference: patent publication US10905735B2 (priority 2016, dated 2021)
Read-outs that look alike come from different tables or passages of the source. Bridge positions count the residues as written; N and C are the ends. Peptide text beside a SMILES is read from it.

Key:
[1] = tested on: Staphylococcus aureus Newman strain; settings: 5 mg/kg body weight, injected 30 minutes after infection; versus aseptic water control; one week
Experimental: 1) Preparation of Staphylococcus aureus Newman Solution
Newman monoclonal strain with hemolytic circles is selected, 3 mL BHI medium is inoculated with the strain, and the strain is shook overlight at a speed of 220 rpm and a temperature of 37° C.
1 mL overnight strain is centrifuged at a speed of 5000 rpm for 2 min, and the supernatant is removed.
20 mL aseptic PBS is added for resuspension at a speed of 5000 rpm for 5 min, and the supernatant is removed.
5 mL aseptic PBS resuspended bacteria is diluted to OD600=0.
2) Establishment of Model of Bacteremia and Determination of Polypeptide Activity in BALB/c Mice
BALB/c mice (female, 8 weeks) are subjected to intraperitoneal injection of anesthetic (1% pentobarbital) (200 μL for each mouse).
Newman solution (OD600=0.2, 100 μL for each mouse) is injected into retrobulbar venous plexus.
After 30 minutes of infection, 6 mice are injected with polypeptide at enterocoelia (0.5 mg/mL, 200 μL for each mouse) and 7 mice in control are injected with sterile water (200 μL for each mouse).
The times of the mouse in one week are recorded and used for drawing survival curves.

[2] = tested on: production of the toxins of Staphylococcus aureus 04018 strain (MDBK cells readout); assay type: cell-based; settings: for Cell survival (%) / inhibitory effect on the production of the toxins of Staphylococcus aureus (in words): MDBK cells; for MDBK cell OD (M ± SD): OD 595 nm, MTT; for inhibitory effect on the production of the toxins of Staphylococcus aureus (in words): peptide in normal saline (MRK as suspension)
Experimental: For the determination method for inhibitory level on the toxins of Staphylococcus aureus, please refer to literatures. (Yang G, et al. A novel peptide screened by phage display can mimic TRAP antigen epitope against Staphylococcus aureus infections. J Biol. Chem. 2005, 280: 27431-27435), details are as follows:
1) Staphylococcus aureus strain 04018 frozen in refrigerator is scribbed to a blood plate or BHI plate; cultured in an incubator for 16 hours until monoclonal colony is observed in the plate, and placed in a 4° C. refrigerator for standby use.
2) After 8 hours, the monoclonal colony in the plate is randomly selected, 25 mL test tubes of the BHI medium is inoculated with the monoclonal colony; and then the two test tubes are shook in a shaking table at a temperature of 37° C. at a speed of 200 rpm, the bacteria are collected after 16 hours, the bacteria solution in the two test tubes are mixed evenly for standby use.
3) The chemosynthetic peptide MRK and MRG and the positive control (the toxins of Staphylococcus aureus inhibitor protein TP) are dissolved in normal saline, diluted to different concentrations, and added to bacteria BHI medium. The final concentrations of small peptides are 0, 1.5, 5, 15, 50, 150 and 500 μg/mL respectively. The solvent control is the same amount of normal saline; the negative control is the BHI medium of Staphylococcus aureus; and a normal cell control is also provided.
4) The chemosynthetic peptides of different concentrations are co-incubated with Staphylococcus aureus 04018 and cultured for 6 hours, and then bacteria are collected. 700 μL bacterial suspensions are added to EP tubes, centrifuged at 8000 rpm for 5 min, supernatants are obtained, boiled at a temperature of 100° C. for 7 min, and centrifuged at a speed of 14000 rpm for 10 min. 10 μL supernatants are taken, added into a 96-microwell cell culture plate inoculated with 1×10<5>/mL MDBK cells. After continuous culture for 18-20 hours, 5 μL MTT solution (5 mg/mL) is added to each microwell, 100 μL 10% SDS+0.01M HCl solution is added to each microwell after 3 hours. After culture in the incubator at a temperature of 37° C. for 20 hours, detection at 595 nm and reading are carried out by an enzyme-linked immunometricmeter.

| Compound | death / survival rate in bacteremia (in words) [1] | inhibitory effect on toxin production compared with TP protein (positive control) ([2]; 5 μg/mL small peptide) | Cell survival (%) ([2]; 0.005 mg/mL peptide) | MDBK cell OD (M ± SD) ([2]; 0.005 mg/mL peptide) | Cell survival (%) ([2]; 0.05 mg/mL peptide) | MDBK cell OD (M ± SD) ([2]; 0.05 mg/mL peptide) | Cell survival (%) ([2]; 0.15 mg/mL peptide) | MDBK cell OD (M ± SD) ([2]; 0.15 mg/mL peptide) | inhibitory effect on the production of the toxins of Staphylococcus aureus (in words) [2] | solubility |
| --- | --- | --- | --- | --- | --- | --- | --- | --- | --- | --- |
| CH3(CH2)10CO-Gly-Cyclo(Cys-Gln-His-D-Trp-Trp-His-Trp-Tyr-Cys)-Arg-Arg-Arg-NH2 [MRG] | survival rate is greatly improved | greater than that of TP protein | 60% | 0.296 ± 0.001 | 92% | 0.454 ± 0.015 | 96% | 0.473 ± 0.004 | obvious protective effect on the proliferation inhibition of MDBK cells | – |
| NC(=O)CC[C@@H]1NC(=O)[C@@H](N)CSSC[C@@H](C(=O)O)NC(=O)[C@H](Cc2ccc(O)cc2)NC(=O)[C@H](Cc2c[nH]c3ccccc23)NC(=O)[C@H](Cc2c[nH]cn2)NC(=O)[C@H](Cc2c[nH]c3ccccc23)NC(=O)[C@H](Cc2c[nH]c3ccccc23)NC(=O)[C@H](Cc2c[nH]cn2)NC1=O [MRK, CQHWWHWYC] (H-CQHWWHWYC-OH; disulfide 1-9) | good inhibitory effect on Staphylococcus aureus infection in vivo | – | 25% | 0.123 ± 0.011 | 20% | 0.098 ± 0.014 | 35% | 0.171 ± 0.001 | could not inhibit the production of the toxins | < 100 µg/mL |
